Source: PMC8781304, “Arene-Ruthenium(II) Complexes with Carbothiamidopyrazoles as a Potential Alternative for Antibiotic Resistance in Human” (Molecules, 2022)
Values after ≈ are worked out from the molar mass of the structure shown. Like-named read-outs stand apart in the source and are kept apart here.

Columns and labels:
[1] = test system: S. epidermidis ATCC 12228; test: Cell lysis (bacteriolysis, OD600); type: cell-based, Staphylococcus epidermidis; conditions: 1 × MBC
[2] = test system: Staphylococcus epidermidis ATCC 12228; test: Fluorescence microscopy, Hoechst 33258 / propidium iodide viability; type: cell-based; conditions: S. epidermidis ATCC 12228; MIC concentration, 24 h
Procedure: (§1) Staphylococcus aureus ATCC 29213 and Staphylococcus epidermidis ATCC 12228 strains were treated with tested compounds 2a–2d and 3a–3d at a concentration 1 × MIC for 24h, while untreated cells were used as a growth control. After incubation, the cells were harvested and a suspension of 1 × 10^5 cells/mL in PBS was prepared. Following this, 1 µl of the fluorescent dyes Hoechst 33258 and propidium iodide (15 µg/mL each) (Sigma, St. Louis, MO, USA) were added. The obtained mixture was incubated in the dark at room temperature for 15–20 min. After incubation, the cell suspensions, placed on glass slides, were analyzed under an Olympus IX 70 fluorescence microscope (Shinjuku, Tokyo, Japan), using a 360–370 nm UV filter. Photos were taken at 10 × 20 magnification.

[3] = test system: Staphylococcus aureus ATCC 29213; test: as above; type: cell-based; conditions: S. aureus ATCC 29213; MIC concentration, 24 h
Procedure: as §1

S. aureus ATCC 29213 [4] = test: Time-kill test; type: cell-based, Staphylococcus aureus; conditions: 1 × MIC
Procedure: (§2) The time-kill experiments were performed as described previously. Briefly, inocula were prepared in TSB medium (TSB; […] BTL Sp. z o.o., Łódź, Poland). All samples were incubated at 35 °C and 80 rpm for varied time intervals (2, 4, 6, 12, 18, 24, 48h). The percentage of dead cells was calculated according to the growth control by determining the number of living cells (CFU/mL) of each tube using the agar plate count method. Samples were immediately serially diluted ten-fold in 0.01 M phosphate buffered saline (PBS, Bimed Lublin S.A., Lublin, Poland) at pH 7.0 and 10 μL aliquots were spot-inoculated in duplicate onto MHA plates. Agar plates were incubated at 37 °C overnight before determining the viable count. Two independent experiments were carried out.

S. aureus ATCC 29213 [5] = test: Synergy with oxacillin and vancomycin, partial checkerboard broth microdilution; type: cell-based, Staphylococcus aureus; conditions: for FIC (Oxa) / FIC (Van): MIC antibiotic in combination/MIC antibiotic alone; for MIC Oxa in Combination: oxacillin with the complex at ½ MIC (NH4PF6 250 µg/mL); for MIC Van in Combination: vancomycin with the complex at ½ MIC (NH4PF6 250 µg/mL); for MIC: Staphylococcus aureus
[6] = test system: S. epidermidis ATCC 12228; test: as above; type: cell-based, Staphylococcus epidermidis; conditions: for FIC (Oxa) / FIC (Van): MIC antibiotic in combination/MIC antibiotic alone; for MIC Oxa in Combination: oxacillin with the complex at ½ MIC (NH4PF6 250 µg/mL); for MIC Van in Combination: vancomycin with the complex at ½ MIC (NH4PF6 250 µg/mL); for MIC: Staphylococcus epidermidis
[7] = test system: S. epidermidis ATCC 12228; test: Time-kill test; type: cell-based, Staphylococcus epidermidis; conditions: 1 × MIC
Procedure: as §2

[8] = test system: Candida albicans ATCC 10231; test: MIC and MBC/MFC by broth microdilution; type: cell-based; conditions: C. albicans ATCC 10231
Procedure: (§3) Reference strains of bacteria and fungi: Staphylococcus aureus ATCC 29213, Staphylococcus epidermidis ATCC 12228, Enterococcus faecalis ATCC 29212, Pseudomonas aeruginosa ATCC 25619, Proteus vulgaris ATCC 8427, and Candida albicans ATCC 10231 (Manassas, VA, USA) were used to screen the antimicrobial activity of the arene-ruthenium(II) complexes 3a-3d, NH4PF6 and selected antibiotics. The microorganisms were grown for 24 h (bacteria) or 48 h (fungi) in 35-37 °C in tryptic-soy agar (TSA; BTL Sp. z o.o., Łódź, Poland) or Sabouraud's dextrose agar (SDA; BTL Sp. z o.o., Łódź, Poland) according to nutritional requirements. Microbial suspensions at a density of about 5 × 10^5 CFU/mL were prepared in Mueller-Hinton broth (MHB; BTL Sp. z o.o., Łódź, Poland) or RPMI-1640 medium (Sigma, St. Louis, MO, USA) for bacteria and fungi, respectively. […] Louis, MO, USA). Stock solutions of the lyophilized compounds were freshly prepared in 100% DMSO (POCh, Gliwice, Poland) for the complexes, or in water for injection (Sigma, St. Louis, MO, USA) in the case of antibiotics. […] MIC and MBC/MFC were defined as the lowest concentrations of the compounds inhibiting bacterial/fungal growth or able to kill added microbial inoculum, respectively, and were evaluated as described by […] et al.. Experiments were carried out in duplicate.

[9] = test system: Proteus vulgaris ATCC 8427; test: MIC and MBC/MFC by broth microdilution; type: cell-based; conditions: P. vulgaris ATCC 8427
Procedure: as §3

[10] = test system: Pseudomonas aeruginosa ATCC 25619; test: MIC and MBC/MFC by broth microdilution; type: cell-based; conditions: P. aeruginosa ATCC 25619
Procedure: as §3

[11] = test system: Enterococcus faecalis ATCC 29212; test: MIC and MBC/MFC by broth microdilution; type: cell-based; conditions: E. faecalis ATCC 29212
Procedure: as §3

[12] = test system: Staphylococcus epidermidis ATCC 12228; test: MIC and MBC/MFC by broth microdilution; type: cell-based; conditions: S. epidermidis ATCC 12228
Procedure: as §3

[13] = test system: Staphylococcus aureus ATCC 29213; test: MIC and MBC/MFC by broth microdilution; type: cell-based; conditions: S. aureus ATCC 29213
Procedure: as §3

[14] = test system: human foreskin fibroblast HFF-1 (ATCC-SCRC-1041); test: Cytotoxicity, MTT reduction assay; type: cell-based
Procedure: The cytotoxicity of arene-ruthenium(II) complexes 3a–3d was determined using the MTT (3-(4,5-dimethylthiazol-2-yl)-2,5-diphenyltetrazolium bromide; Sigma, St. Louis, MO, USA) reduction assay and a human foreskin fibroblast HFF-1 culture (ATCC-SCRC-1041) (LGC Standards Sp. z o.o., Poland) at a final concentration range of 3.9–500 µM. The HFF-1 cells were cultured in Dulbecco’s Modified Eagle’s Medium (DMEM; Sigma, St. Louis, MO, USA) with 15% fetal bovine serum (FBS; BioWest, Nuaillé, France) and penicillin/streptomycin (100 × stock solution; BioWest, Nuaillé, France), 1 × 10^6 cell/mL (100 µL/well) in 96-well tissue culture plates (Nunc, Roskilde, Denmark) for 24 h at 37 °C/5% CO2. The cells were then exposed to arene-ruthenium(II) complexes for 24 h at 37 °C. The control (untreated) cells were exposed to culture medium alone or culture medium containing 2% DMSO to exclude the effect of the solvent used to prepare the stock solutions of the tested complexes. Next, fresh culture medium (100 µL/well) and MTT (1.5 mg/mL, 50 µL/well) were added, and cells were incubated for two hours under the above conditions. MTT was […] blue formazan crystals produced by the metabolically active cells. Finally, the MTT solution was removed and replaced with 100 µL/well of 20% sodium dodecyl sulfate (SDS; Sigma, St. Louis, MO, USA) for 24 h (room temperature) to dissolve the blue formazan. Based on the absorbance (λ = 550 nm) of tested and control cells (100% viability), the percentage of cell viability after exposure was calculated. For each sample, the experiment was performed twice.

## Cc1cc(C)n(C(N)=S)n1.Cc1ccc(C(C)C)cc1.[Cl-].[Cl][Ru+] [Compound 2a]
[1]
  Cell lysis, change of OD600: not found to change OD600 values
[2]
  Change in bacterial viability (Hoechst 33258 / PI fluorescence): Less changes in cell survival
[3]
  Change in bacterial viability (Hoechst 33258 / PI fluorescence): Less changes in cell survival
S. aureus ATCC 29213 [4]
  Time-kill: bacteriostatic or bactericidal: bacteriostatic
S. aureus ATCC 29213 [5]; S. aureus ATCC 29213
  FIC (Oxa): 1
  FIC (Van): 1
  MIC Oxa in Combination: 0.250 µg/mL
  MIC Van in Combination: 0.50 µg/mL
[6]; S. epidermidis ATCC 12228
  FIC (Oxa): 0.06
  FIC (Van): 0.03
  MIC Oxa in Combination: 0.015 µg/mL
  MIC Van in Combination: 0.015 µg/mL
[7]
  Time-kill: bacteriostatic or bactericidal: bacteriostatic

## Cc1ccc(C(C)C)cc1.Cc1ccc(C(C)C)cc1.[Cl][Ru][Cl].[Cl][Ru][Cl] [Dimer, dichloro(p-cymene)ruthenium(II) dimer]
S. aureus ATCC 29213 [5]; S. aureus ATCC 29213
  Correlation with Oxa and Van (synergy), in words: did not show any synergistic effect
  FIC (Oxa): 1
  FIC (Van): 1
  MIC Oxa in Combination: 0.250 µg/mL
  MIC Van in Combination: 0.50 µg/mL
[6]; S. epidermidis ATCC 12228
  Correlation with Oxa and Van (synergy), in words: did not show any synergistic effect
  FIC (Oxa): 1
  FIC (Van): 2
  MIC Oxa in Combination: 0.25 µg/mL
  MIC Van in Combination: 1 µg/mL

## OC(Cn1cncn1)(Cn1cncn1)c1ccc(F)cc1F [Flu, fluconazole, reference compound]
[8]
  MBC/MFC: >16 µg/mL
  MIC: >16 µg/mL
[8]; Candida albicans, ATCC10231, read-out: MIC
  MIC: > 16 µg/mL

## CNC(C)C1CCC(N)C(OC2C(N)CC(N)C(OC3OCC(C)(O)C(NC)C3O)C2O)O1 (stereo not drawn) [Gen, gentamicin, reference compound]
[9]
  MBC/MFC: 1 µg/mL (≈ 2.09 µM)
[9]; Proteus vulgaris, ATCC8427, read-out: MIC
  MIC: 1 µg/mL (≈ 2.09 µM)
[10]
  MBC/MFC: 16 µg/mL (≈ 33.5 µM)
[10]; Pseudomonas aeruginosa, ATCC25619, read-out: MIC
  MIC: 8 µg/mL (≈ 16.8 µM)
[11]
  MBC/MFC: <2 µg/mL
  MIC: <2 µg/mL
[11]; Enterococcus faecalis, ATCC29212, read-out: MIC
  MIC: < 2 µg/mL

## F[P-](F)(F)(F)(F)F.[NH4+] [NH4PF6, Ammonium hexafluorophosphate]
[12]
  MBC/MFC: >1000 µg/mL
  MIC: >1000 µg/mL
[8]
  MBC/MFC: >1000 µg/mL
  MIC: >1000 µg/mL
[13]
  MBC/MFC: >1000 µg/mL
  MIC: >1000 µg/mL
[9]
  MBC/MFC: >1000 µg/mL
  MIC: >1000 µg/mL
[10]
  MBC/MFC: >1000 µg/mL
  MIC: >1000 µg/mL
[11]
  MBC/MFC: >1000 µg/mL
  MIC: >1000 µg/mL
S. aureus ATCC 29213 [5]; S. aureus ATCC 29213
  Correlation with Oxa and Van (synergy), in words: did not show any synergistic effect
  FIC (Oxa): 1
  FIC (Van): 1
  MIC Oxa in Combination: 0.250 µg/mL
  MIC Van in Combination: 0.50 µg/mL
[6]; S. epidermidis ATCC 12228
  Correlation with Oxa and Van (synergy), in words: did not show any synergistic effect
  FIC (Oxa): 1
  FIC (Van): 2
  MIC Oxa in Combination: 0.25 µg/mL
  MIC Van in Combination: 1 µg/mL

## Cc1onc(-c2ccccc2)c1C(=O)N[C@@H]1C(=O)N2[C@@H]1SC(C)(C)[C@@H]2C(=O)O [Oxa, oxacillin, reference compound]
[12]
  MBC/MFC: 0.5 µg/mL (≈ 1.25 µM)
[12]; Staphylococcus epidermidis, ATCC12228, read-out: MIC
  MIC: 0.25 µg/mL (≈ 0.623 µM)
[13]
  MBC/MFC: 0.5 µg/mL (≈ 1.25 µM)
[13]; Staphylococcus aureus, ATCC29213, read-out: MIC
  MIC: 0.25 µg/mL (≈ 0.623 µM)
S. aureus ATCC 29213 [5]; ATCC29213, S. aureus ATCC 29213, oxacillin without complex, read-out: MIC Oxa Alone
  MIC: 0.25 µg/mL
[6]; ATCC12228, S. epidermidis ATCC 12228, oxacillin without complex, read-out: MIC Oxa Alone
  MIC: 0.25 µg/mL

## CN[C@H](CC(C)C)C(=O)N[C@H]1C(=O)N[C@@H](CC(N)=O)C(=O)N[C@H]2C(=O)N[C@H]3C(=O)N[C@H](C(=O)N[C@H](C(=O)O)c4cc(O)cc(O)c4-c4cc3ccc4O)[C@H](O)c3ccc(c(Cl)c3)Oc3cc2cc(c3O[C@@H]2O[C@H](CO)[C@@H](O)[C@H](O)[C@H]2O[C@H]2C[C@](C)(N)[C@H](O)[C@H](C)O2)Oc2ccc(cc2Cl)[C@H]1O [Van, vancomycin, reference compound]
S. aureus ATCC 29213 [5]; ATCC29213, read-out: MIC Van Alone
  MIC: 0.5 µg/mL
[6]; ATCC12228, read-out: MIC Van Alone
  MIC: 0.5 µg/mL

## [(η ^6 -p-cymene)Ru(1-[amino(thioxo)methyl]-5-hydroxy-3-methyl-1H-pyrazole)[PF6] [Compound 3d]
[12]
  MBC/MFC: 250 µg/mL
  MIC: 125 µg/mL
[8]
  MBC/MFC: >1000 µg/mL
  MIC: >1000 µg/mL
[13]
  MBC/MFC: 500 µg/mL
  MIC: 125 µg/mL
[9]
  MBC/MFC: >1000 µg/mL
  MIC: >1000 µg/mL
[10]
  MBC/MFC: 1000 µg/mL
  MIC: 1000 µg/mL
[11]
  MBC/MFC: 500 µg/mL
  MIC: 500 µg/mL
[2]
  Change in bacterial viability (Hoechst 33258 / PI fluorescence): no significant changes in the viability
[3]
  Change in bacterial viability (Hoechst 33258 / PI fluorescence): no significant changes in the viability
S. aureus ATCC 29213 [5]; S. aureus ATCC 29213
  FIC (Oxa): 1
  FIC (Van): 2
  MIC Oxa in Combination: 0.250 µg/mL
  MIC Van in Combination: 1 µg/mL
[14]; HFF-1, MTT, 24 h, tested 3.9–500 μM
  IC50: 892 µM
[14]; range 3.9–500 μM
  HFF-1 viability (lowest): ≥ 75%
[6]; S. epidermidis ATCC 12228
  FIC (Oxa): 0.25
  FIC (Van): 0.06
  MIC Oxa in Combination: 0.06 µg/mL
  MIC Van in Combination: 0.03 µg/mL
